≈ marks a conversion by molar mass, not a printed value. Structures can show the parent of a compound that is named as a salt. Where two headings read alike, the source gives them in different places.
Legend:
[1] = tested on: lethal effects of adrenaline; assay: adrenolytic activity in vivo in the rat (reduction of lethal effects of adrenaline)
From the text: The same activity, in vivo, has been determined in the rat. Table II reports the doses ID50 (in mg/kg) capable of reducing 50% of the lethal effects of adrenaline by intravenous administration (i.v.) and oral administration (os) of the compounds under examination.

[2] = tested on: spasmogen action of adrenaline on isolated seminal small bladder; assay: adrenolytic activity on isolated seminal small bladder of guinea-pig (inhibition of spasmogen action of adrenaline); format: cell-based; settings: Cavia porcellus; isolated seminal small bladder of guinea-pig suspended in physiologic solution; read-out: concentrations inhibiting 50% of the spasmogen action of adrenaline (IC50)
From the text: The adrenolytic activity of the compounds of the invention has been tested by employing dihydroergotamine as a comparison compound. Particularly, it has been determined on the isolated seminal small bladder of guinea-pig suspended in physiologic solution.
Table I reports the concentrations inhibiting 50% of the spasmogen action of adrenaline (IC50).

[3] = intravenous administration (i.v.), read-out: ID50 (i.v.): dose reducing 50% of the lethal effects of adrenaline
[4] = oral administration (os), read-out: ID50 (os): dose reducing 50% of the lethal effects of adrenaline

| SMILES | ED50 [1, 3] [mg/kg] | ED50 [1, 4] [mg/kg] | IC50 [2] [µg/mL] |
| --- | --- | --- | --- |
| CO[C@]12C[C@@H](COC(=O)c3ccc[nH]3)CN(C)[C@@H]1Cc1cn(C)c3cccc2c13 [1,6-Dimethyl-8β-(2'-pyrroyloxymethyl)-10α-methoxyergoline] | 0.005 | 0.5 | 0.005 (≈ 0.0127 µM) |
| CO[C@]12C[C@@H](COC(=O)c3[nH]c(C)cc3C)CN(C)[C@@H]1Cc1cn(C)c3cccc2c13 [1,6-Dimethyl-8β-(3',5'-dimethyl-2'-pyrroyloxymethyl)-10α-methoxyergoline] | 0.065 | 0.1 | 0.05 (≈ 0.119 µM) |
| CO[C@]12C[C@@H](COC(=O)c3cc[nH]c3)CN(C)[C@@H]1Cc1cn(C)c3cccc2c13 [1,6-Dimethyl-8β-(3'-pyrroyloxymethyl)-10α-methoxyergoline] | 0.05 | 0.5 | 0.005 (≈ 0.0127 µM) |
| CO[C@]12C[C@@H](COC(=O)c3c(C)cc(C)n3C)CN(C)[C@@H]1Cc1cn(C)c3cccc2c13 [1,6-Dimethyl-8β-[1', 3',5'-trimethyl-2'-pyrroyloxymethyl]-10α-methoxyergoline maleate] | 0.25 | 0.2 | 0.01 |
| CO[C@]12C[C@@H](COC(=O)c3c(C)c[nH]c3C)CN(C)[C@@H]1Cc1cn(C)c3cccc2c13 [1,6-Dimethyl-8β-[2', 4'-dimethyl-3'-pyrroyloxymethyl]-10α-methoxyergoline] | 0.1 | 0.7 | 0.07 (≈ 0.166 µM) |
| CO[C@]12C[C@@H](COC(=O)c3cc[nH]c3C)CN(C)[C@@H]1Cc1cn(C)c3cccc2c13 [1,6-Dimethyl-8β-[2'-methyl-3'-pyrroyloxymethyl]-10α-methoxyergoline] | 0.05 | 0.25 | 0.05 (≈ 0.123 µM) |
| CO[C@]12C[C@@H](COC(=O)c3[nH]c(C)c(Br)c3C)CN(C)[C@@H]1Cc1cn(C)c3cccc2c13 [1,6-Dimethyl-8β-[3', 5'-dimethyl-4'-bromo-2'-pyrroyloxymethyl]-10α-methoxyergoline] | > 1 | 0.5 | 0.1 (≈ 0.2 µM) |
| CCOC(=O)c1c(C)[nH]c(C(=O)OC[C@H]2CN(C)[C@@H]3Cc4cn(C)c5cccc(c45)[C@@]3(OC)C2)c1C [1,6-Dimethyl-8β-[3', 5'-dimethyl-4'-carbethoxy-2'-pyrroyloxymethyl]-10α-methoxyergoline] | > 0.1 | 2.5 | 1 (≈ 2.03 µM) |
| COc1c[nH]cc1C(=O)OC[C@H]1CN(C)[C@@H]2Cc3cn(C)c4cccc(c34)[C@@]2(OC)C1 [1,6-Dimethyl-8β-[4'-methoxy-3'-pyrroyloxymethyl]-10α-methoxyergoline] | 0.075 | 0.3 | 0.1 (≈ 0.236 µM) |
| CO[C@]12C[C@@H](COC(=O)c3cccn3C)CN(C)[C@@H]1Cc1cn(C)c3cccc2c13 [1,6-dimethyl-8β-[2'-(N-methyl)-pyrroyloxymethyl]-10α-methoxyergoline] | 0.025 | 1 | 0.005 (≈ 0.0123 µM) |
| CN1C[C@H](C(=O)N[C@]2(C)O[C@@]3(O)[C@@H]4CCCN4C(=O)[C@H](Cc4ccccc4)N3C2=O)C[C@@H]2c3cccc4[nH]cc(c34)C[C@H]21 [Dihydroergotamine, reference compound] | 0.08 | 15 | 0.015 (≈ 0.0257 µM) |

— patent US3966739A, “Pyrrole-carboxylic acids lumilysergol esters” (Societa' Farmaceutici Italia S.p.A., priority 1971, dated 1976)
